The structures appear in SMILES notation. Bridge positions count the residues as written; N and C are the ends. Square brackets hold non-standard residues; d marks the D form. Peptide text beside a SMILES is read from it. * marks the point of attachment. Phe(4-CONH2) = NC(=O)c1ccc(C[C@H](N)C(=O)O)cc1; Phe(4-COOH) = N[C@@H](Cc1ccc(C(=O)O)cc1)C(=O)O; Bip = N[C@@H](Cc1ccc(-c2ccccc2)cc1)C(=O)O; NH(CH2)14COOH = O=C(O)CCCCCCCCCCCCCCN*; Phe(3-Me) = Cc1cccc(C[C@H](N)C(=O)O)c1; Phe(4-F) = N[C@@H](Cc1ccc(F)cc1)C(=O)O; Val(3-OH) = CC(C)(O)[C@H](N)C(=O)O; 4Pal = N[C@@H](Cc1ccncc1)C(=O)O; Cha = N[C@@H](CC1CCCCC1)C(=O)O; dDab = NCC[C@@H](N)C(=O)O; Carboxymethyl = O=C(O)C*; Orn = NCCC[C@H](N)C(=O)O; Aun = NCCCCCCCCCCC(=O)O; Dab = NCC[C@H](N)C(=O)O; AEEA = NCCOCCOCC(=O)O

For the assay, the target named is T1, PD-1/PD-L1 interaction (PE-labeled human PD-L1-Ig binding to Jurkat cell line over-expressing human PD-1) (Homo sapiens, UniProt Q15116).
T1 construct: expressed in transfected cells; host or cells: Jurkat
T1 sequence (Q15116 25-288): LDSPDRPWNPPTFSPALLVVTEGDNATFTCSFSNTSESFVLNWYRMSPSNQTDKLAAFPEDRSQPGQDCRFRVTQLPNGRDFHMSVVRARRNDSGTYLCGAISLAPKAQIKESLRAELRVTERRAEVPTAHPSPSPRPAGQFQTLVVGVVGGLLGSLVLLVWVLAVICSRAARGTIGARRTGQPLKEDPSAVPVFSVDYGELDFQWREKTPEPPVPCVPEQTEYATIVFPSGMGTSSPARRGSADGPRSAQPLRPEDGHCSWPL
Description: Jurkat-PD-1 Cell Binding High-Content Screening Assay (CBA). Conditions: Jurkat cell line over-expressing human PD-1; PE-labeled PD-L1-Ig 20 nM final; read-out: Jurkat hPD1-PDL1 IC50. Type of assay: cell-based. Summed up:
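Human PD-L1-Ig carrying a covalent PE label on its Ig tag serves as the probe, applied at 20 nM final to compound-treated (2 h, 37° C) Jurkat-hPD-1 cells in medium with 10% fetal calf serum. After one hour, fixation and nuclear staining precede high-content image analysis.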
Consider `Cc1cccc(C[C@@H]2NC(=O)[C@H](CC(=O)O)NC(=O)[C@H](Cc3ccc(OCC(=O)O)cc3)NC(=O)[C@H](CCN)NC(=O)CSC[C@@H](C(=O)N[C@@H](CCN)C(=O)NCCOCCOCC(=O)NCCOCCOCC(=O)NCCOCCOCC(=O)NCCCCCCCCCCCCCCC(=O)O)NC(=O)[C@H](Cc3c[nH]cn3)NC(=O)[C@H](C(C)(C)O)NC(=O)[C@H](CC3CCCCC3)NC(=O)[C@H](CCN)NC(=O)[C@@H](CC(C)C)NC(=O)[C@H](CCCN)NC(=O)[C@H](Cc3ccc(C(=O)O)cc3)NC(=O)[C@H](Cc3ccc(-c4ccccc4)cc3)NC(=O)[C@H](Cc3ccc(C(N)=O)cc3)NC2=O)c1` [Compound 3761] ({CH2CO}-[Dab]Y(Carboxymethyl)D[Phe(3-Me)][Phe(4-CONH2)][Bip][Phe(4-COOH)][Orn][dL][Dab][Cha][Val(3-OH)]HC[Dab][AEEA][AEEA][AEEA]-{NH(CH2)14COOH}; thioether N-14), for which the IC50 is 0.0368 µM.
To `Cc1cccc(C[C@@H]2NC(=O)[C@H](CC(=O)O)NC(=O)[C@H](Cc3ccc(OCC(=O)O)cc3)NC(=O)[C@H](CCN)NC(=O)CSC[C@@H](C(=O)N[C@@H](CCN)C(=O)NCCOCCOCC(=O)NCCOCCOCC(=O)NCCCCCCCCCCCCCCC(=O)O)NC(=O)[C@H](Cc3cnc[nH]3)NC(=O)[C@H](C(C)(C)O)NC(=O)[C@H](CC3CCCCC3)NC(=O)[C@H](CCN)NC(=O)[C@@H](CC(C)C)NC(=O)[C@H](CCCN)NC(=O)[C@H](Cc3ccc(C(=O)O)cc3)NC(=O)[C@H](Cc3ccc(-c4ccccc4)cc3)NC(=O)[C@H](Cc3ccc(C(=O)O)cc3)NC2=O)c1` [Compound 3762] ({CH2CO}-[Dab]Y(Carboxymethyl)D[Phe(3-Me)][Phe(4-COOH)][Bip][Phe(4-COOH)][Orn][dL][Dab][Cha][Val(3-OH)]HC[Dab][AEEA][AEEA]-{NH(CH2)14COOH}; thioether N-14) belongs 0.0275 µM.
As for `Cc1cccc(C[C@@H]2NC(=O)[C@H](CC(=O)O)NC(=O)[C@H](Cc3ccc(C(=O)O)cc3)NC(=O)[C@H](Cc3ccncc3)NC(=O)CSC[C@@H](C(=O)N[C@@H](CCN)C(=O)NCCOCCOCC(=O)NCCOCCOCC(=O)NCCCCCCCCCCC(=O)O)NC(=O)[C@H](CCC(=O)O)NC(=O)[C@H](C(C)(C)O)NC(=O)[C@H](CC3CCCCC3)NC(=O)[C@H](CCN)NC(=O)[C@@H](CC(C)C)NC(=O)[C@H](CCCN)NC(=O)[C@H](Cc3ccc(C(=O)O)cc3)NC(=O)[C@H](Cc3ccc(-c4ccccc4)cc3)NC(=O)[C@H](Cc3ccc(C(=O)O)cc3)NC2=O)c1` [Compound 3764] ({CH2CO}-[4Pal][Phe(4-COOH)]D[Phe(3-Me)][Phe(4-COOH)][Bip][Phe(4-COOH)][Orn][dL][Dab][Cha][Val(3-OH)]EC[Dab][AEEA][AEEA][Aun]-OH; thioether N-14), the IC50 was determined as 0.238 µM.
As to `Cc1cccc(C[C@@H]2NC(=O)[C@H](CC(=O)O)NC(=O)[C@H](Cc3ccc(C(=O)O)cc3)NC(=O)[C@H](Cc3ccncc3)NC(=O)CSC[C@@H](C(=O)N[C@@H](CCN)C(=O)NCCOCCOCC(=O)NCCOCCOCC(=O)NCCCCCCCCCCC(=O)O)NC(=O)[C@H](CCC(=O)O)NC(=O)[C@H](C(C)C)NC(=O)[C@H](CC3CCCCC3)NC(=O)[C@H](CCN)NC(=O)[C@@H](CC(C)C)NC(=O)[C@H](CCCN)NC(=O)[C@H](Cc3ccc(C(=O)O)cc3)NC(=O)[C@H](Cc3ccc(-c4ccccc4)cc3)NC(=O)[C@H](Cc3ccc(C(=O)O)cc3)NC2=O)c1` [Compound 3765] ({CH2CO}-[4Pal][Phe(4-COOH)]D[Phe(3-Me)][Phe(4-COOH)][Bip][Phe(4-COOH)][Orn][dL][Dab][Cha]VEC[Dab][AEEA][AEEA][Aun]-OH; thioether N-14), the IC50 amounted to 0.344 µM.
Consider `Cc1cccc(C[C@@H]2NC(=O)[C@H](CC(=O)O)NC(=O)[C@H](Cc3ccc(OCC(=O)O)cc3)NC(=O)[C@H](Cc3ccncc3)NC(=O)CSC[C@@H](C(=O)N[C@@H](CCN)C(=O)NCCOCCOCC(=O)NCCOCCOCC(=O)NCCCCCCCCCCC(=O)O)NC(=O)[C@H](Cc3cnc[nH]3)NC(=O)[C@H](C(C)C)NC(=O)[C@H](CC3CCCCC3)NC(=O)[C@H](CCN)NC(=O)[C@@H](CC(C)C)NC(=O)[C@H](CCCN)NC(=O)[C@H](Cc3ccc(C(=O)O)cc3)NC(=O)[C@H](Cc3ccc(-c4ccccc4)cc3)NC(=O)[C@H](Cc3ccc(C(=O)O)cc3)NC2=O)c1` [Compound 3766] ({CH2CO}-[4Pal]Y(Carboxymethyl)D[Phe(3-Me)][Phe(4-COOH)][Bip][Phe(4-COOH)][Orn][dL][Dab][Cha]VHC[Dab][AEEA][AEEA][Aun]-OH; thioether N-14), for which the half-maximal inhibitory concentration (IC50) came out at 0.0312 µM.
For the compound `Cc1cccc(C[C@@H]2NC(=O)[C@H](CC(=O)O)NC(=O)[C@H](Cc3ccc(OCC(=O)O)cc3)NC(=O)[C@H](Cc3ccc(F)cc3)NC(=O)CSC[C@@H](C(=O)N[C@@H](CCN)C(=O)NCCOCCOCC(=O)NCCOCCOCC(=O)NCCCCCCCCCCC(=O)O)NC(=O)[C@H](Cc3cnc[nH]3)NC(=O)[C@H](C(C)(C)O)NC(=O)[C@H](CC3CCCCC3)NC(=O)[C@H](CCN)NC(=O)[C@@H](CC(C)C)NC(=O)[C@H](CCCN)NC(=O)[C@H](Cc3ccc(C(=O)O)cc3)NC(=O)[C@H](Cc3ccc(-c4ccccc4)cc3)NC(=O)[C@H](Cc3ccc(C(=O)O)cc3)NC2=O)c1` [Compound 3767] ({CH2CO}-[Phe(4-F)]Y(Carboxymethyl)D[Phe(3-Me)][Phe(4-COOH)][Bip][Phe(4-COOH)][Orn][dL][Dab][Cha][Val(3-OH)]HC[Dab][AEEA][AEEA][Aun]-OH; thioether N-14), the IC50 was found to be 0.0096 µM.
To `Cc1cccc(C[C@@H]2NC(=O)[C@H](CC(=O)O)NC(=O)[C@H](Cc3ccc(OCC(=O)O)cc3)NC(=O)[C@H](Cc3ccc(F)cc3)NC(=O)CSC[C@@H](C(=O)N[C@@H](CCN)C(=O)NCCOCCOCC(=O)NCCOCCOCC(=O)NCCCCCCCCCCC(=O)O)NC(=O)[C@H](CCC(=O)O)NC(=O)[C@H](C(C)(C)O)NC(=O)[C@H](CC3CCCCC3)NC(=O)[C@H](CCN)NC(=O)[C@@H](CC(C)C)NC(=O)[C@H](CCCN)NC(=O)[C@H](Cc3ccc(C(=O)O)cc3)NC(=O)[C@H](Cc3ccc(-c4ccccc4)cc3)NC(=O)[C@H](Cc3ccc(C(=O)O)cc3)NC2=O)c1` [Compound 3768] ({CH2CO}-[Phe(4-F)]Y(Carboxymethyl)D[Phe(3-Me)][Phe(4-COOH)][Bip][Phe(4-COOH)][Orn][dL][Dab][Cha][Val(3-OH)]EC[Dab][AEEA][AEEA][Aun]-OH; thioether N-14) belongs 0.0065 µM; to `Cc1cccc(C[C@@H]2NC(=O)[C@H](CC(=O)O)NC(=O)[C@H](Cc3ccc(OCC(=O)O)cc3)NC(=O)[C@H](C)NC(=O)CSC[C@@H](C(=O)N[C@@H](CCN)C(=O)NCCOCCOCC(=O)NCCCCCCCCCCC(=O)O)NC(=O)[C@H](CO)NC(=O)[C@H](C(C)(C)O)NC(=O)[C@H](CC3CCCCC3)NC(=O)[C@H](CCN)NC(=O)[C@@H](CC(C)C)NC(=O)[C@H](CCCN)NC(=O)[C@H](Cc3ccc(C(=O)O)cc3)NC(=O)[C@H](Cc3ccc(-c4ccccc4)cc3)NC(=O)[C@H](Cc3ccc(C(=O)O)cc3)NC2=O)c1` [Compound 3769] ({CH2CO}-AY(Carboxymethyl)D[Phe(3-Me)][Phe(4-COOH)][Bip][Phe(4-COOH)][Orn][dL][Dab][Cha][Val(3-OH)]SC[Dab][AEEA][Aun]-OH; thioether N-14), 0.0035 µM.
To `Cc1cccc(C[C@@H]2NC(=O)[C@H](CC(=O)O)NC(=O)[C@H](Cc3ccc(OCC(=O)O)cc3)NC(=O)[C@@H](CCN)NC(=O)CSC[C@@H](C(=O)N[C@@H](CCN)C(=O)NCCCCCCCCCCC(=O)O)NC(=O)[C@H](Cc3cnc[nH]3)NC(=O)[C@H](C(C)(C)O)NC(=O)[C@H](CC3CCCCC3)NC(=O)[C@H](CCN)NC(=O)[C@@H](CC(C)C)NC(=O)[C@H](CCCN)NC(=O)[C@H](Cc3ccc(C(=O)O)cc3)NC(=O)[C@H](Cc3ccc(-c4ccccc4)cc3)NC(=O)[C@H](Cc3ccc(C(=O)O)cc3)NC2=O)c1` [Compound 3770] ({CH2CO}-[dDab]Y(Carboxymethyl)D[Phe(3-Me)][Phe(4-COOH)][Bip][Phe(4-COOH)][Orn][dL][Dab][Cha][Val(3-OH)]HC[Dab][Aun]-OH; thioether N-14) belongs 0.239 µM; to `Cc1cccc(C[C@@H]2NC(=O)[C@H](CC(=O)O)NC(=O)[C@H](Cc3ccc(OCC(=O)O)cc3)NC(=O)[C@H](CCN)NC(=O)CSC[C@@H](C(=O)N[C@@H](CCN)C(=O)NCCOCCOCC(=O)NCCOCCOCC(=O)NCCOCCOCC(=O)NCCCCCCCCCCC(=O)O)NC(=O)[C@H](CCC(=O)O)NC(=O)[C@H](C(C)(C)O)NC(=O)[C@H](CC3CCCCC3)NC(=O)[C@H](CCN)NC(=O)[C@@H](CC(C)C)NC(=O)[C@H](CCCN)NC(=O)[C@H](Cc3ccc(OCC(=O)O)cc3)NC(=O)[C@H](Cc3ccc(-c4ccccc4)cc3)NC(=O)[C@H](Cc3ccc(OCC(=O)O)cc3)NC2=O)c1` [Compound 3771] ({CH2CO}-[Dab]Y(Carboxymethyl)D[Phe(3-Me)]Y(Carboxymethyl)[Bip]Y(Carboxymethyl)[Orn][dL][Dab][Cha][Val(3-OH)]EC[Dab][AEEA][AEEA][AEEA][Aun]-OH; thioether N-14), 0.0047 µM.
To `Cc1cccc(C[C@@H]2NC(=O)[C@H](CC(=O)O)NC(=O)[C@H](Cc3ccc(OCC(=O)O)cc3)NC(=O)[C@H](CCN)NC(=O)CSC[C@@H](C(=O)N[C@@H](CCN)C(=O)NCCOCCOCC(=O)NCCOCCOCC(=O)NCCOCCOCC(=O)NCCCCCCCCCCC(=O)O)NC(=O)[C@H](Cc3cnc[nH]3)NC(=O)[C@H](C(C)(C)O)NC(=O)[C@H](CC3CCCCC3)NC(=O)[C@H](CCN)NC(=O)[C@@H](CC(C)C)NC(=O)[C@H](CCCN)NC(=O)[C@H](Cc3ccc(C(=O)O)cc3)NC(=O)[C@H](Cc3ccc(-c4ccccc4)cc3)NC(=O)[C@H](Cc3ccc(C(=O)O)cc3)NC2=O)c1` [Compound 3772] ({CH2CO}-[Dab]Y(Carboxymethyl)D[Phe(3-Me)][Phe(4-COOH)][Bip][Phe(4-COOH)][Orn][dL][Dab][Cha][Val(3-OH)]HC[Dab][AEEA][AEEA][AEEA][Aun]-OH; thioether N-14) belongs 0.0026 µM.

The record behind these values is patent US20260022142A1, “MACROCYCLIC IMMUNOMODULATORS” (Bristol-Myers Squibb Company, priority 2022, published 2026).
